{
  "source": "patent US7449484B2",
  "about": "“Compounds” (SmithKline Beecham Corporation, priority 2000, dated 2008)",
  "key": {"[1]": {"test_system": "murine airpouch granuloma", "assay": "Murine Air Pouch Granuloma Model of angiogenesis in vivo", "parameters": "species or system mice", "settings": "positive control", "description": "Measurement of Angiogenesis In Vivo—Murine Air Pouch Granuloma Model:\nThe murine airpouch granuloma model of chronic inflammation (Kimura et al., 1985, J. Pharmacobio-Dyn., 8:393-400; Colville-Nash et al., 1995, J. Pharm. and Exp. Ther., 274:1463-1472) whose disclosure is incorporated herein by reference in its entirety, is characterized by inflammatory cell influx, fibrous tissue proliferation and intense angiogenesis. […] In addition, angiogenesis can be accurately quantitated by a vascular casting method.\nDay 1, mice are anesthetized using Aerrane (isoflurane) gas (5%) or other approved methods, after which 3 mls of air is injected into the dorsal subcutaneous tissue using a 27 g needle. Mice are allowed to recover. […]\nWhen the granuloma is removed it is weighed and then dried for 3 days at 45° C. and reweighed. […] The carmine content is then determined against a carmine red standard curve (0.5 to 2 mg/ml) generated in extracted tissue from non carmine treated animals and read at 490 nm. Sample and standard values are determined typically using DeltaSoft Elisa analysis software (Biometallics Inc., Princeton, N.J.). […]\nThe effect of compounds on vascular density was typically measured for 6 days after induction of the granuloma. This time point has been determined to be at or near the peak of angiogenesis. […] Medroxyprogesterone had no effect on granuloma size as measured by dry weight."}},
  "data": [
    {"molecule": "CCOc1ccc2cc(-c3nc(C(C)(C)C)[nH]c3-c3ccncc3)ccc2c1", "values": [
      {"measurement": "melting point", "result": "258 to 259", "unit": "°C"}
    ]},
    {"molecule": "medroxyprogesterone", "values": [
      {"measurement": "maximum reduction (vascular density)", "setting": "[1]; measured 6 days after induction of the granuloma", "result": 50, "unit": "%"},
      {"measurement": "effect on granuloma size as measured by dry weight", "setting": "[1]; murine air pouch granuloma", "result": "no effect"}
    ]}
  ]
}
